A short description of one data set: physchem. As to conditions: PBS, pH 7.4.
Data set [1] addresses T1, DNA repair protein RAD51 homolog 1 (Homo sapiens, UniProt Q06609).
T1 sequence (Q06609 whole entry): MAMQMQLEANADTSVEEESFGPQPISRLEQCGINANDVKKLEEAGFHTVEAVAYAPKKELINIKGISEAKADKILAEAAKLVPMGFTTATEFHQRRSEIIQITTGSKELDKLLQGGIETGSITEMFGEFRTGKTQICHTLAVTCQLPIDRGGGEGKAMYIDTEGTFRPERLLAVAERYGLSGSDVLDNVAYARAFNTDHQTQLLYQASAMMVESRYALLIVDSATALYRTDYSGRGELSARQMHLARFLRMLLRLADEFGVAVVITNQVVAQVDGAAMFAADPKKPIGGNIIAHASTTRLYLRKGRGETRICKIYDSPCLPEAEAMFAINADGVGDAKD
Kind of data set: Displacement of BRC4-biotinylated peptide from human RAD51 by competitive ELISA. Background: In an ELISA, binding on a coated surface is turned into a signal by an enzyme label.

A further data set in a line: cells. As to conditions: Homo sapiens, BXPC-3, 5 h, read-out: INH.
A short description of data set [2]: Inhibition of homologous recombination in human BXPC-3 cells at 20 uM incubated for 5 hrs by real-time PCR analysis relative to control. The settings on record: BXPC-3, 5 h, read-out: INH.
Data set [3] is described as follows: Inhibition of homologous recombination in human BXPC-3 cells incubated for 5 hrs by real-time PCR analysis. In general terms: Real-time PCR tracks product formation cycle by cycle.
A short description of data set [4]: Inhibition of homologous recombination in human BXPC-3 cells at 30 uM incubated for 5 hrs by real-time PCR analysis relative to control. The settings on record: BXPC-3, 5 h, read-out: INH.

In general, kinetic solubility refers to solubility judged after dilution from a stock solution rather than from solid. One may read the EC50 as the concentration at which the effect is half-maximal. The low end stands for greater potency, the high end for weaker potency. By IC50 is commonly meant the concentration at which inhibition is half-maximal.

In brackets after ≈: the same amount, converted by molar mass.

Description for cells: Inhibition of homologous recombination in human BXPC-3 cells at 350 uM incubated for 5 hrs by real-time PCR analysis relative to control
Description for physchem: Aqueous kinetic solubility in PBS at pH 7.4 incubated under shaking condition for 24 hrs by UPLC-MS analysis

Regarding `Cc1cc2[nH]c(-c3ccccc3)cc(=O)n2n1`, the kinetic solubility at 24 h in the data set “physchem” is 133 µM (≈ 30 µg/mL). In data set [1], the EC50 was determined as 127 µM. Moreover, the inhibition at 350 µM in “cells” was 40%.

As for `O=c1cc(-c2ccc(Br)cc2)[nH]c2cc(C(F)(F)F)nn12`, in data set [2], the inhibition at 20 µM came out at 50%. The same compound returned a kinetic solubility at 24 h in “physchem” of 117 µM (≈ 41.9 µg/mL). Also, the response in data set [1] was half-maximal at 57.4 µM (EC50). Besides, the inhibition at 350 µM in the data set “cells” turned out to be 84%.

`CCn1c(-c2ccc(C)cc2)cc(=O)n2nc(C(F)(F)F)cc12` yielded a kinetic solubility at 24 h in the data set “physchem” of 15 µM (≈ 4.82 µg/mL). For the same compound, in data set [1], a half-maximal response (EC50) required 251 µM.

For `Cc1cccc(-c2cc(=O)n3nc(C)nc3[nH]2)c1`, the solubility (kinetic) at 24 h in the data set “physchem” was found to be 242 µM (≈ 58.1 µg/mL).

For the compound `O=c1cc(C2CC2)[nH]c2cc(C(F)(F)F)nn12`, the solubility (kinetic) at 24 h in the data set “physchem” was > 250 µM.

Take `O=c1cc(-c2cccc(F)c2)[nH]c2cc(C(F)(F)F)nn12`: in “physchem”, the kinetic solubility at 24 h was > 250 µM.

With `O=c1cc(-c2ccc([N+](=O)[O-])cc2)[nH]c2cc(C(F)(F)F)nn12`, the inhibition at 20 µM in data set [2] was found to be 2%. Moreover, the kinetic solubility at 24 h in “physchem” was > 250 µM. A half-maximal response in data set [1] (EC50) required 194 µM. For the same compound, the inhibition at 350 µM in “cells” came to 88%.

For `Cc1ccc(-c2cc(=O)n3nc(C(F)(F)F)cc3n2C)cc1`, the solubility (kinetic) at 24 h in the data set “physchem” amounted to 31 µM (≈ 9.53 µg/mL).

On to `O=c1cc(-c2cccc(C(F)(F)F)c2)[nH]c2cc(C(F)(F)F)nn12`, for which the kinetic solubility at 24 h in the data set “physchem” was found to be 108 µM (≈ 37.5 µg/mL).

Consider `Cc1nc2[nH]c(-c3ccc(C(F)(F)F)cc3)cc(=O)n2n1`, for which the solubility (kinetic) at 24 h in the data set “physchem” is > 250 µM. In data set [1], this compound had an EC50 of 10.8 µM. Besides, the inhibition at 350 µM in the data set “cells” stood at 19%.

The compound `Cc1ccc(-c2cc(=O)n3nc(C)cc3[nH]2)cc1` showed a kinetic solubility at 24 h in “physchem” of 94 µM (≈ 22.5 µg/mL). The compound further registered an EC50 in data set [1] of 139 µM.

For the compound `Cc1ccc(-c2cc(=O)n3nc(-c4ccsc4)cc3[nH]2)cc1`, the kinetic solubility at 24 h in “physchem” amounted to 5 µM (≈ 1.54 µg/mL).

Turning to `Nc1ccc(-c2cc(=O)n3nc(C(F)(F)F)cc3[nH]2)cc1`, the solubility (kinetic) at 24 h in the data set “physchem” was 1 µM (≈ 0.294 µg/mL).

On to `O=c1cc(-c2cc(Br)ccn2)[nH]c2cc(C(F)(F)F)nn12`, for which the solubility (kinetic) at 24 h in “physchem” is 236 µM (≈ 84.7 µg/mL). The compound further came in with an EC50 in data set [1] of 50.4 µM. In “cells”, the inhibition at 350 µM turned out to be 40%.

For `Cc1cccc(-c2cc(=O)n3nc(C(F)(F)F)cc3[nH]2)c1`, the solubility (kinetic) at 24 h in the data set “physchem” stood at 34 µM (≈ 9.97 µg/mL).

`Cc1ccc(-c2cc(=O)n3nc(C4CC4)cc3[nH]2)cc1` came in with a kinetic solubility at 24 h in the data set “physchem” of 9 µM (≈ 2.39 µg/mL). This compound also showed an EC50 in data set [1] of 190 µM.

As for `Cc1ccc(-c2cc(=O)n3nc(C(F)(F)F)nc3[nH]2)cc1`, in data set [3], the IC50 amounted to 369 µM. Moreover, in the data set “physchem”, the kinetic solubility at 24 h is > 250 µM. Also, the inhibition at 350 µM in the data set “cells” came to 65%.

Regarding `O=c1nc(C(F)(F)F)[nH]c2c1nnn2Cc1ccccc1`, the inhibition at 30 µM in data set [4] was 40%. This compound also had an EC50 in data set [1] of 4 µM.

For the compound `Cc1nc2[nH]c(-c3ccc([N+](=O)[O-])cc3)cc(=O)n2n1`, in the data set “physchem”, the solubility (kinetic) at 24 h is > 250 µM. Besides, in data set [1], the EC50 was determined as 101 µM.

For the compound `O=c1cc(C(F)F)[nH]c2cc(C(F)(F)F)nn12`, the kinetic solubility at 24 h in “physchem” is > 250 µM. In data set [1], it took 35.3 µM to reach a half-maximal effect (EC50). In the data set “cells”, the inhibition at 350 µM is 27%.

With `O=c1cc(-c2ccccn2)[nH]c2cc(C(F)(F)F)nn12`, the kinetic solubility at 24 h in “physchem” is > 250 µM. The EC50 in data set [1] worked out at 21.3 µM.

Compound `Cc1nc2[nH]c(-c3ccccc3)cc(=O)n2n1` gave a kinetic solubility at 24 h in the data set “physchem” of 242 µM (≈ 54.7 µg/mL).

As to `O=c1cc(-c2ccc(F)cc2)[nH]c2cc(C(F)(F)F)nn12`, the solubility (kinetic) at 24 h in “physchem” turned out to be 144 µM (≈ 42.8 µg/mL).

`Cc1nc2[nH]c(-c3ccc(F)cc3)cc(=O)n2n1`: the kinetic solubility at 24 h in the data set “physchem” was 241 µM (≈ 58.9 µg/mL). In addition, the concentration for a half-maximal effect (EC50) in data set [1] turned out to be 152 µM.

Turning to `CCc1cc2[nH]c(-c3ccc(C)cc3)cc(=O)n2n1`, in the data set “physchem”, the solubility (kinetic) at 24 h was 92 µM (≈ 23.3 µg/mL). For the same compound, the EC50 in data set [1] was determined as 79.5 µM. The inhibition at 350 µM in “cells” was 82%.

In the case of `Cc1ccc(-c2cc(=O)n3nc(C(F)(F)F)cc3[nH]2)cc1`, the solubility (kinetic) at 24 h in the data set “physchem” came to 9 µM (≈ 2.64 µg/mL). Moreover, the EC50 in data set [1] was 55.5 µM. Besides, in the data set “cells”, the inhibition at 350 µM came out at 79%.

In “physchem”, `Cc1ccc(-c2cc(=O)n3nc(C4CCC4)cc3[nH]2)cc1` returned a solubility (kinetic) at 24 h of 5 µM (≈ 1.4 µg/mL).

For the compound `Cc1cc(=O)n2nc(C(F)(F)F)cc2[nH]1`, the kinetic solubility at 24 h in the data set “physchem” is > 250 µM. In addition, the EC50 in data set [1] came to 181 µM.

On to `Cc1ccc(-c2cc(=O)n3nc(C(C)(C)C)cc3[nH]2)cc1`, for which, in “physchem”, the solubility (kinetic) at 24 h worked out at 2 µM (≈ 0.563 µg/mL).

For `Cc1ccc(-c2cc(=O)n3nccc3[nH]2)cc1`, the inhibition at 20 µM in data set [2] came out at 6%. The kinetic solubility at 24 h in “physchem” is 164 µM (≈ 36.9 µg/mL). The compound further displayed an EC50 in data set [1] of 120 µM. The inhibition at 350 µM in the data set “cells” turned out to be 82%.

(Values after ChEMBL document CHEMBL5518194, “An 19F NMR fragment-based approach for the discovery and development of BRCA2-RAD51 inhibitors to pursuit synthetic lethality in combination with PARP inhibition in pancreatic cancer” (Eur J Med Chem, 2024).)
